Test [1] has as its target T1, Paired box protein Pax-3 (Homo sapiens, UniProt P23760). The test can be described thus: Inhibition of PAX3-FOXO1 (unknown origin) fusion protein expressed human Rh4 cells cotransfected with ALK-Luc incubated for 24 hrs by Steady-Glo luciferase assay.
The target of test [2] is T1, Paired box protein Pax-3. Nature of the test: Inhibition of PAX3-FOXO1 (unknown origin) fusion protein expressed human Rh4 cells cotransfected with CMV-Luc incubated for 24 hrs by Steady-Glo luciferase assay.

Molecules are shown by their SMILES. pIC50: −log10 of the molar value.

T1 sequence (P23760 whole entry, the tested form may be a part): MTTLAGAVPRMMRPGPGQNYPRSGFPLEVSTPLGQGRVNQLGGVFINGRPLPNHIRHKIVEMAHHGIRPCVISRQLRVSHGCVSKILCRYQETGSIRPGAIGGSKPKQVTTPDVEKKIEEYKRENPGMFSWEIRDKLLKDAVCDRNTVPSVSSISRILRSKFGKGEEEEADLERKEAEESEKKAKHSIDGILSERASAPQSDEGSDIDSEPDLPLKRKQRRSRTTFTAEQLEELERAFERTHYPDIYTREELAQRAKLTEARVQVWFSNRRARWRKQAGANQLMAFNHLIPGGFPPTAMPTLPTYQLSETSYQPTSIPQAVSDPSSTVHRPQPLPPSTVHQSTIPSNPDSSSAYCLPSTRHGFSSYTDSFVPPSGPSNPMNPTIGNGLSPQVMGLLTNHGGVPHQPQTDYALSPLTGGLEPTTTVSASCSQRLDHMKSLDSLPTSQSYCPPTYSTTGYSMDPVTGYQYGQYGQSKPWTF

With `COC1=C(C)C(=O)c2c(cn(C)c(=O)c2NCCS(=O)(=O)Oc2c(C)c(OC)c(O)c3c[n+](C)ccc23)C1=O`, the figures for the pIC50 on Paired box protein Pax-3 [1] and against Paired box protein Pax-3 [2] were 5.27 and 5.03, respectively.

Take `COC1=C(C)C(=O)c2c(cn(C)c(=O)c2NCCS(=O)(=O)Oc2c(C)c(OC)c(O)c3c[n+](C)c(C(=O)O)cc23)C1=O`: the pIC50 at Paired box protein Pax-3 [1] was 5.24; against Paired box protein Pax-3 [2] it was 5.01.

With `COC(=O)c1cc2c(OS(=O)(=O)CCNc3c4c(cn(C)c3=O)C(=O)C(OC)=C(C)C4=O)c(C)c(OC)c(O)c2c[n+]1C`, the pIC50 against Paired box protein Pax-3 [1] was 5.19; at Paired box protein Pax-3 [2] it was 4.93.

The values above are taken from BindingDB's records for doi:10.1021/acs.jnatprod.3c01041 (National Cancer Institute, 2024).
